Laboratory results published in US20190314345A1, “CALCINEURIN INHIBITOR AND NON-STEROIDAL ANTI-INFLAMMATORY DRUG TO REDUCE RISK OF POST-IMAGING PANCREATITIS” (UNIVERSITY OF PITTSBURGH - OF THE COMMONWEALTH SYSTEM OF …, priority 2016, published 2019).

Experiments:
[1] = high-affinity Ca2+-sensing dye; cited from earlier work
NF-κB = experiment: NF-κB-luciferase activity assay in AR42J cells; format: cell-based; conditions: for effect on RC-induced NF-κB luciferase levels: U73122 5 μM, 2-APB 100 μM, BAPTA 64 μM
Method: AR42J cells were differentiated towards an acinar phenotype by administering dexamethasone (100 nM) for 48-72 hr^17. AR42J cells were infected with Ad-NF-κB luciferase 16 h prior to stimulation using a previously described method^12. Following a wash with DMEM/F12 medium, acinar cells were evenly distributed in a 48-well plate and incubated for 30 min at 37° C. They were incubated with RC at varying concentrations and times. NF-κB-luciferase was measured using a commercially available luciferase assay (Promega, Madison, Wis.). Briefly, cells were spun at 1,000 rpm for 5 min, washed with PBS, and lysed using reporter lysis 5× buffer (Promega, catalog no. E397A). Samples were vortexed and spun at 12,000×g for 2 min. The supernatant was plated, and luminescence was measured using a Synergy H1 plate reader (BioTek, Winooski, Vt.) and normalized to […].

calcineurin [2] = experiment: NFAT-luciferase activity assay in AR42J cells; format: cell-based; conditions: for effect on RC (6%)-induced NFAT-luciferase activity: pretreatment, FK506 24 μM, CsA 16 μM, U73122 5 μM, 2-APB 100 μM, BAPTA 64 μM
Method: (§1) Acinar cells were infected with Ad-NFAT-luciferase following a previously described procedure^10, 15, 16. The construct includes a luciferase gene placed downstream of an IL-4 promoter which contains nine tandem NFAT binding sites^10. Acinar cells were incubated with the NFAT-driven luciferase adenovirus for 1.5 hr prior to stimulation. All of the stated inhibitors were added for 30 min prior to stimulation with RC. NFAT-luciferase was measured using the luciferase assay system. Briefly, cells were spun at 1,000 rpm for 5 min, washed with PBS, and lysed using reporter lysis 5× buffer (Promega #E397A, Madison, Wis.). Samples were vortexed and spun at 12,000 g for 2 min. Supernatant was plated, and luminescence was measured using a Synergy H1 plate reader (BioTek, Winooski, Vt.) and normalized to total protein.

AR42J cells = experiment: Ca2+ signals (Fluo-4AM) in AR42J cells; format: cell-based; conditions: U73122 5 μM, 2-APB 100 μM
Method: FIG. 7A-7H. […] (A) Summation of whole cell tracings from AR42J cells loaded with Fluo-4AM and perifused with RC (iohexol; 10-25%). (B, D) Quantification of amplitude and area under the curve. (C) RC (25%)-induced acinar cell Ca^2+ signals were prevented by the PLC inhibitor U73122 (5 μM) and the IP3R inhibitor 2-APB (100 μM). (n=20-30 cells per condition). *, # P<0.05 relative to 10% RC or RC alone, respectively. AR42J cells were infected with Ad-NFAT-luciferase and stimulated with RC at (E) increasing concentrations. […] (n=3). *, #, P<0.05, relative to the control or RC alone, respectively.
Acinar cells were loaded at room temperature with the high-affinity Ca^2+-sensing dye Fluo-4AM (Kd=300 nM; Invitrogen). Acinar cells were plated on acid-washed glass coverslips and then mounted on a perifusion chamber. Thereupon, they were stimulated at room temperature with varying concentrations of RC (17-50%) diluted in HEPES buffer. Carbachol (1 mM) was given at the end of each experiment to confirm that the cells were intact and could mobilize intracellular Ca^2+ stores. A Zeiss LSM710 laser scanning confocal microscope was used with a […], 1.4 numerical aperture objective. […] Fluorescence from individual acinar cells was recorded. Analysis of recordings was performed using ImageJ software (NIH, Bethesda, Md.), and mean fluorescence over time in each region was graphed.

calcineurin [3] = experiment: NFAT-luciferase activity assay in mouse primary acinar cells; format: cell-based
Method: as §1

primary acinar cells = experiment: Cell necrosis assay (propidium iodide uptake) in primary acinar cells; format: cell-based, mouse; conditions: for effect on RC (12%)-induced acinar cell injury (PI uptake): 6 hr incubation, U73122 5 μM, 2-APB 100 μM, BAPTA 64 μM, IKK-2 20 μM, FK506 24 μM, CsA 16 μM
Method: Acinar cells were incubated in a 48-well plate with 50 μg/ml of propidium iodide (PI) for 30 min prior to addition of RC. Fluorescence was measured at 536 nm excitation and 617 nm emission wavelengths over time a time course of up to 6 hr. Fluorescence was measured after cell lysis with 0.5% Triton-X 100 was used to normalize the results relative to total DNA.

PEP model in mice = experiment: Intra-ductal RC infusion PEP model in mice: histological severity, serum amylase; format: in vivo, mouse
Source text: The procedure for retrograde infusion into the CBD and pancreatic duct has been described before^14. Briefly, Swiss Webster mice were anesthetized with isoflurane. A midline incision was made to reveal the abdominal cavity. The duodenum was flipped to reveal its distal side and held in place by ligatures. […] needle was inserted through the anti-mesenteric aspect of the duodenum to cannulate the CBD. A small bull dog clamp was applied to the distal CBD (near the duodenum) to prevent back flow of the infusate into the duodenal lumen and to hold the cannula in place. A larger bull dog clamp was applied to the proximal CBD (near the liver) to prevent infusion into the liver and thus to direct flow to the pancreatic duct. Total volumes of 50-100 μl of iohexol, iopamidol, or normal saline (NS) were infused at 10-20 μl per min for 5 min using a P33 perfusion pump (Harvard Apparatus, Holliston, Mass.). Upon completion of the infusion, the bull dog clamps were released. The exterior abdominal wound was closed using 7 mm wound clips, and a single injection of buprenorphine (0.075 mg/kg) was given immediately after the surgery. Mice recovered on a heating pad for 30 min after the procedure. They were given free access to food and water after the surgery. The pancreas, duodenum, and spleen were fixed at room temperature for 24 hr in 4% paraformaldehyde. Paraffin-embedded sections were stained with hematoxylin an eosin (HE) and graded using a 20× objective over 10 separate fields in a blinded fashion. Pancreas tissue was graded for edema, inflammatory infiltrate, and necrosis as described by Wildi et al.^67. Whole blood samples were centrifuged at 1500×g for 5 min at 4° C. Serum amylase was measured using a Phadebas kit (Amersham Pharmacia, Rochester N.Y.) as previously described^68.

pancreatic acinar cells = experiment: ATP level measurements in acinar cells; format: cell-based, mouse; conditions: RC, concentration dependent
Method: Following isolation, pancreatic acinar cells were cultured in DMEM/F12 Medium (0.5 ml/well of a 48-well plate) at 37° C. water bath and treated with RC±FK506. Cells were collected at indicated time points and lysed in 100 lysis buffer (100 mM Tris pH 7.75, 4 mM EDTA). ATP levels were measured from 20 μl aliquots of acinar cell lysates using the ENLITEN luciferase/luciferin reagent (Promega catalog no. FF2021).

[4] = tested on: mouse pancreatic acinar cells; experiment: Ca2+ signals (Fluo-4AM) in mouse pancreatic acinar cells; format: cell-based; conditions: 25% and 33% RC; peak-plateau Ca2+ waves
Method: Acinar cells were loaded at room temperature with the high-affinity Ca^2+-sensing dye Fluo-4AM (Kd=300 nM; Invitrogen). Acinar cells were plated on acid-washed glass coverslips and then mounted on a perifusion chamber. Thereupon, they were stimulated at room temperature with varying concentrations of RC (17-50%) diluted in HEPES buffer. Carbachol (1 mM) was given at the end of each experiment to confirm that the cells were intact and could mobilize intracellular Ca^2+ stores. A Zeiss LSM710 laser scanning confocal microscope was used with a […], 1.4 numerical aperture objective. The dye was excited at 488 nm wavelength, and emission signals of >515 nm were collected every 2 sec. Fluorescence from individual acinar cells was recorded. Analysis of recordings was performed using ImageJ software (NIH, Bethesda, Md.), and mean fluorescence over time in each region was graphed.
Groups of pancreatic acinar cells were isolated as previously described 26, 69 with minor modifications. Briefly, the pancreas was removed, and then minced for 5 min in buffer containing 20 mM HEPES (pH 7.4), 95 mM NaCl, 4.7 mM KCl, 0.6 mM MgCl2, 1.3 mM CaCl2=, 10 mM glucose, and 2 mM glutamine, plus 1% BSA, 1×MEM nonessential amino acids (GIBCO/BRL), 200 units/ml type-4 collagenase (Worthington, Freehold, N.J.), and 1 mg/ml soybean trypsin inhibitor. The tissue was incubated for 30 min at 37° C. with shaking at 90 rpm. […]

pancreatic NF-κB = experiment: Imaging pancreatic NF-κB bioluminescence in vivo; design: species or system mouse; conditions: 4 hr after surgery, region of the pancreas
Method: An AAV6-NF-κB-luciferase reporter was constructed, expanded in HEK293 cells, and purified as previously described^18-20, 39. A volume of 100 μl of virus (10^12 GCP/ml) was infused into the pancreaticobiliary duct at a rate of 10 μl/min using the same technique of RC infusion described above and recently published^21, 39. After a 5-week recovery from the surgery, mice underwent PEP induction with or without FK506 treatment. At varying time points after the surgery, ranging from 2 to 36 hr, bioluminescence signals were obtained by first giving a subcutaneous injection of luciferin (150 μg/g body weight) in the scruff of the neck 15 min before the start of imaging. The mice were briefly anesthetized with isoflurane and placed in the supine position in a bioluminescent imaging chamber (IVIS spectrum imager; Perkin Elmer, Waltham, Mass.) for 3-10 min. Average pixel intensity was measured from a pancreatic region of interest (in the upper abdomen). Raw time points from each mouse were normalized to its individual baseline intensity at time zero.

calcineurin [5] = experiment: NFAT-luciferase activity assay in human acinar cells; format: cell-based
Method: as §1

[6] = varying concentrations of iopamidol

CC(=O)OCOC(=O)CN(CC(=O)OCOC(C)=O)c1ccc(C)cc1OCCOc1cc(-c2c3cc(F)c(=O)cc-3oc3cc(OCOC(C)=O)c(F)cc23)ccc1N(CC(=O)OCOC(C)=O)CC(=O)OCOC(C)=O [Fluo-4AM]
Kd [1]: 300 nM

NCCOB(c1ccccc1)c1ccccc1 [2-APB]
effect on RC-induced NF-κB luciferase levels (NF-κB): reduced
effect on RC (6%)-induced NFAT-luciferase activity (calcineurin [2]): prevented
effect on RC (25%)-induced acinar cell Ca2+ signals (AR42J cells): prevented
reduction of RC-induced luciferase rise (calcineurin [3]; 2-APB 100 μM, P<0.05): 47%
effect on RC (12%)-induced acinar cell injury (PI uptake) (primary acinar cells): prevented

CCCCCCCCCCC[C@@H](C[C@@H]1OC(=O)[C@H]1CCCCCC)OC(=O)[C@H](CC(C)C)NC=O [Orlistat]
effect of pretreatment on RC-induced NF-κB activation (NF-κB; NAC 2-12 mM, Orlistat 50-100 μM, RC 16%): did not significantly reduce

COc1ccc2c(c1)c(CC(=O)O)c(C)n2C(=O)c1ccc(Cl)cc1 [indomethacin]
effect of FK506 compared with therapeutic indomethacin on RC-induced pancreatitis (PEP model in mice; FK506 1 mg/kg, indomethacin 7 mg/kg IP after RC infusion): as robust

COc1ccc2c(c1)CC[C@@H]1[C@@H]2CC[C@]2(C)[C@@H](NCCCCCCN3C(=O)C=CC3=O)CC[C@@H]12 [U73122]
effect on RC-induced NF-κB luciferase levels (NF-κB): reduced
effect on RC (6%)-induced NFAT-luciferase activity (calcineurin [2]): prevented
effect on RC (25%)-induced acinar cell Ca2+ signals (AR42J cells): prevented
effect on RC (12%)-induced acinar cell injury (PI uptake) (primary acinar cells): prevented

CC(=O)N(CC(O)CO)c1c(I)c(C(=O)NCC(O)CO)c(I)c(C(=O)NCC(O)CO)c1I (stereo not drawn) [RC, iohexol]
increase in NF-κB luciferase above baseline (NF-κB; 25% RC for 10 min, followed by washout): 5 fold
increase in NF-κB luciferase above baseline (NF-κB; 25% RC for 60 min, P<0.05): 58 fold
increase in NF-κB luciferase above baseline (NF-κB; 25% RC for 90 min, P<0.05): 59 fold
increase in NF-κB luciferase above baseline (NF-κB; 25% RC for 120 min, P<0.05): 112 fold
rise in NF-κB (NF-κB; at 350 mOsm/L): 300 fold
severity of pancreatitis at pH 6 compared to pH 7 (PEP model in mice; RC buffered with 10 mM HEPES, pH clamped at 6): no increased severity
increase in histological severity above the intra-ductal NS sham control (PEP model in mice; intra-ductal RC, doubled rate and volume, 24 hr after procedure): 59%
serum amylase increase (PEP model in mice; intra-ductal RC, 6 hr post-procedure): at least 50%
ATP levels (pancreatic acinar cells): depletion
Ca2+ signal amplitude above baseline [4]: 400%
PI uptake (primary acinar cells; RC exposure for 6 hr): concentration-dependent increase
peak in NF-κB luciferase compared to NS sham (pancreatic NF-κB): 13 fold

C[C@H](O)C(=O)Nc1c(I)c(C(=O)NC(CO)CO)c(I)c(C(=O)NC(CO)CO)c1I [iopamidol]
NF-κB activation (NF-κB; [6]): concentration-dependent
NFAT activation (calcineurin [2]; [6]): concentration-dependent
induction of pancreatitis (PEP model in mice; intra-ductal infusion, 24 hr): induces pancreatitis

OC[C@@H](O)[C@@H](O)[C@H](O)[C@H](O)CO [mannitol]
NF-κB increase at equimolar concentrations (NF-κB; osmolality control, equimolar to RC): failed to cause an increase

CC(=O)OCOC(=O)CN(CC(=O)OCOC(C)=O)c1ccccc1OCCOc1ccccc1N(CC(=O)OCOC(C)=O)CC(=O)OCOC(C)=O [BAPTA-AM]
effect on RC-induced NF-κB luciferase levels (NF-κB): reduced
effect on RC (6%)-induced NFAT-luciferase activity (calcineurin [2]): prevented
effect on RC (25%)-induced NFAT-luciferase activity (calcineurin [5]): prevented
effect on RC-induced rise in NFAT-luciferase (calcineurin [3]; 30 min pre-treatment, FK506 24 μM, CsA 16 μM, BAPTA-AM 64 μM): completely reduced
effect on RC (12%)-induced acinar cell injury (PI uptake) (primary acinar cells): prevented
